Reference: PMC3022637, “The modulation of TRPM7 currents by nafamostat mesilate depends directly upon extracellular concentrations of divalent cations” (Molecular Brain, 2010)

How the values were obtained:
[1] = biological target: T1, TRPM7 current in cultured mouse hippocampal neurons (Mus musculus, UniProt Q923J1); assay: Whole-cell voltage clamp of TRPM7 currents in cultured hippocampal neurons (low divalent cation-induced or compound-activated); assay type: cell-based; conditions: for direct activation of TRPM7 current at physiological divalent cations: 2 mM Ca2+ and 1 mM Mg2+
T1 construct: supports the substantial involvement of endogenous TRPM7 channels in the responses of neurons; endogenous in cells; host or cells: primary cultured hippocampal neurons from embryonic Swiss mice
T1 sequence (Q923J1 whole entry): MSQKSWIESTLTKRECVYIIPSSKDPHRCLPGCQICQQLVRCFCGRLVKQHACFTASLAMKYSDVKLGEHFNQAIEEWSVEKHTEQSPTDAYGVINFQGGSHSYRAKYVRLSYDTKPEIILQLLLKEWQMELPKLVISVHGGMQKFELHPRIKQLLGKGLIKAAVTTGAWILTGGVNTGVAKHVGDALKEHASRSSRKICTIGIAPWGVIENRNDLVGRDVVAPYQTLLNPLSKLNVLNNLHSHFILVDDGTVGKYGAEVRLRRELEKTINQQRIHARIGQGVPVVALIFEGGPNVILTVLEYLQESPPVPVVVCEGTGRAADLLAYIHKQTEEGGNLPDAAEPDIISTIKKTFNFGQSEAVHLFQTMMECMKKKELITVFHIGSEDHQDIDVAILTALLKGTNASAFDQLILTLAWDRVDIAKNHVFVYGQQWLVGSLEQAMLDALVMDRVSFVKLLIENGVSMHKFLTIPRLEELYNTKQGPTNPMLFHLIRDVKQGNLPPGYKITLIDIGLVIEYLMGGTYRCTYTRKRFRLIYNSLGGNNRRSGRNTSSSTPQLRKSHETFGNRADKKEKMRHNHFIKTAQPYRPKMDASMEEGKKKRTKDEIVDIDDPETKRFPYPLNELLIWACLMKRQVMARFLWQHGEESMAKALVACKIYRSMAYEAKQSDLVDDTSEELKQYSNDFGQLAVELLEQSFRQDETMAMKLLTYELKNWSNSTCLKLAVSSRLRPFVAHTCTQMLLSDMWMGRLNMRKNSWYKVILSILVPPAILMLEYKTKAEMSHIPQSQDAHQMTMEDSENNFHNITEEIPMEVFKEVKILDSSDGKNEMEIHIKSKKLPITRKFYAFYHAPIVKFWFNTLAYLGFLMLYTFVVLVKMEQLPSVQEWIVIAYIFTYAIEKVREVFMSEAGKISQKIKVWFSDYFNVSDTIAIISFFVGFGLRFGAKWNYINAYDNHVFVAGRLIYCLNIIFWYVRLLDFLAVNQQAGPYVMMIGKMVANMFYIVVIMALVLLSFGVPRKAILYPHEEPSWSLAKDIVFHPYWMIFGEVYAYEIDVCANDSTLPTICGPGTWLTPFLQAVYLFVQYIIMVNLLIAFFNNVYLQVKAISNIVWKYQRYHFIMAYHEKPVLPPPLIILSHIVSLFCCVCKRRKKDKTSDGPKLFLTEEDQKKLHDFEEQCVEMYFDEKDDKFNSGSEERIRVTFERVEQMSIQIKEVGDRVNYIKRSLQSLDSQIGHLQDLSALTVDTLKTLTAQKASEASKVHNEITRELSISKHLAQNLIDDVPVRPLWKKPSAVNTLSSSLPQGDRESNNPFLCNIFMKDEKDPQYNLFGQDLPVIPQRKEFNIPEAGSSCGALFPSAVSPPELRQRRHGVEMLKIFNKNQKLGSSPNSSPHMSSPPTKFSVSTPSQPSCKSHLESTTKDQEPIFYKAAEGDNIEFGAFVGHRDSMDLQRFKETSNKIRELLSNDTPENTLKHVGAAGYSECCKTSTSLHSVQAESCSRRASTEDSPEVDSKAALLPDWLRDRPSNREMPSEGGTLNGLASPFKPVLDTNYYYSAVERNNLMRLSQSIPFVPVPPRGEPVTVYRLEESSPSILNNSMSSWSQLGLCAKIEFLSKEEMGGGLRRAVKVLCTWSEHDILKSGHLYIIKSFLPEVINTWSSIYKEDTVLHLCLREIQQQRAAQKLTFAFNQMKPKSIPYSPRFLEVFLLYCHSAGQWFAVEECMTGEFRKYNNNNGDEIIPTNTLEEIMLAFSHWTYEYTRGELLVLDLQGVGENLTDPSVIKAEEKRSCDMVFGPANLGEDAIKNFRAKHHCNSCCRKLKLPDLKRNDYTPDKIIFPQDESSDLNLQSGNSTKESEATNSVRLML

human TRPM7 channels = system: human TRPM7 channels; design: method as in PMID 18719395; conditions: pH 7.4 to 4.0; cited from earlier work
[2] = 1 mM (p-GBA up to 1 mM), low divalent-evoked current
[3] = 200 μM, current evoked by 0.1 mM Ca2+ and 0.1 mM Mg2+

N=C(N)c1ccc2cc(O)ccc2c1 [AN, 6-amidino-2-naphthol]
I compound / I control, pre-applied ([1]; 200 μM, normalized current): 85 ± 5%
block of TRPM7 current, co-applied [1, 2]: only partially inhibited
I compound / I control, co-applied ([1]; 1 mM, normalized current): 69 ± 29%
potentiation of TRPM7 current, pre-applied ([1]; concentration not given): no potentiation

[Ca+2] [Ca^2+]
reduction of IC50 for monovalent cation block on decreasing pH from 7.4 to 4.0 (human TRPM7 channels): 410 fold

N=C(N)c1ccc(-c2cc3ccc(C(=N)N)cc3[nH]2)cc1 [DAPI]
direct activation of TRPM7 current at physiological divalent cations ([1]; 25 μM): without effect
direct activation of TRPM7 current at physiological divalent cations ([1]; 100 μM): strong effect
block of TRPM7 current ([1]; 250 μM, current evoked by 0.1 mM Ca2+ and 0.1 mM Mg2+): completely and reversibly blocked
Hill coefficient ([1]; current evoked by 0.1 mM Ca2+ and 0.1 mM Mg2+): 1.8
IC50 ([1]; current evoked by 0.1 mM Ca2+ and 0.1 mM Mg2+, -60 mV, acutely applied, read-out: IC50, block of TRPM7 current): 38 µM

CCOC(=O)c1ccc(OC(=O)CCCCCNC(=N)N)cc1 [Gabexate, gabexate]
potentiation of TRPM7 current, pre-exposed ([1]; 200 μM): failed to potentiate
inhibition at 200 µM ([1]; 200 μM, read-out: inhibition of TRPM7 current, co-applied): 45 ± 3%

[Gd+3] [Gd^3+]
inhibition of TRPM7 current activated by NM ([1]; 10 μM): 97 ± 2%

CC(=O)N[C@@H](CC(C)C)C(=O)N[C@@H](CC(C)C)C(=O)N[C@H](C=O)CCCNC(=N)N [Leupeptin, leupeptin]
potentiation of TRPM7 current, pre-exposed ([1]; 200 μM): no inhibitory or potentiating effects
block of TRPM7 current, co-applied [1, 3]: no inhibitory or potentiating effects

[Mg+2] [Mg^2+]
reduction of IC50 for monovalent cation block on decreasing pH from 7.4 to 4.0 (human TRPM7 channels): 510 fold

Cn1cc(NC(=O)c2cc(NC(=O)CN=C(N)N)cn2C)cc1C(=O)NCCC(=N)N [netropsin]
potentiation of TRPM7 current, pre-exposed ([1]; 200 μM): nor potentiated
block of TRPM7 current, co-applied [1, 3]: neither blocked

N=C(N)Nc1ccc(C(=O)O)cc1 [p-GBA, p-guanidinobenzoic acid]
block of TRPM7 current, co-applied [1, 2]: neither inhibited
I compound / I control, co-applied ([1]; 1 mM, normalized current): 94 ± 3%
I compound / I control, pre-exposed ([1]; 1 mM, normalized current): 96 ± 1%
potentiation of TRPM7 current, pre-exposed ([1]; up to 1 mM): nor potentiated

N=C(N)NCCCCCCCCCCNC(=N)N [synthalin]
potentiation of TRPM7 current, pre-exposed ([1]; 200 μM): did not block or potentiate
block of TRPM7 current, co-applied [1, 3]: did not block or potentiate
